{"source": "patent US20060251692A1", "about": "“Use of glycol ethers as biodispersants in heating and cooling systems” (priority 2005, published 2006)", "test_system": "biofilms", "test": "pilot site cooling tower (building downtown Montreal) treated with biodispersant, DATS clogging monitor and direct microbiological measurements", "data": [{"molecule": "COC(C)COC(C)CO", "note": "(stereo not drawn) [dipropylene glycol methyl ether]", "values": [{"measurement": "dig out of deposits covering the inside walls of the tower", "setting": "300 ppm in recirculating water, no bactericide", "result": "allowed first the dig out of the deposits"}, {"measurement": "DATS clogging monitor measurements", "setting": "after few days of treatment", "result": "the measurements were stabilized"}, {"measurement": "direct measurements of the microbiological activity (bacterial population vs initial state)", "setting": "without any bactericide injection", "result": "downwards stabilization of the bacterial population"}]}]}
